# From the kinase profiling compilation of Christmann-Franck et al. (2016)
# What was measured:
# Experiment in all cases: radiometric filter-binding kinase assay
# [1] = test system: AKT1 (human), P31749 [S473D]
# [2] = biological target: AURKA (human) (UniProt O14965)
# [3] = biological target: BRSK2 (human) (UniProt Q8IWQ3); settings: compound 10.0 µM
# [4] = biological target: CHEK2 (human) (UniProt O96017)
# [5] = biological target: CaMK1 (human) (UniProt Q14012)
# [6] = biological target: DYRK1A (human) (UniProt Q13627)
# [7] = biological target: DYRK2 (human) (UniProt Q92630)
# [8] = biological target: EPHB2 (human) (UniProt P29323)
# [9] = biological target: EPHB3 (human) (UniProt P54753)
# [10] = biological target: ERBB4 (human) (UniProt Q15303)
# [11] = biological target: HIPK2 (human) (UniProt Q9H2X6)
# [12] = biological target: IKBKE (human) (UniProt Q14164)
# [13] = biological target: MAP2K6 (human) (UniProt P52564)
# [14] = biological target: MAP3K11 (human) (UniProt Q16584)
# [15] = biological target: MAPK1 (human) (UniProt P28482)
# [16] = biological target: MAPK10 (human) (UniProt P53779)
# [17] = biological target: MAPK13 (human) (UniProt O15264)
# [18] = biological target: MAPK3 (human) (UniProt P27361)
# [19] = biological target: MAPK8 (human) (UniProt P45983)
# [20] = biological target: MAPKAPK3 (human) (UniProt Q16644)
# [21] = biological target: MARK2 (human) (UniProt Q7KZI7)
# [22] = biological target: MKNK1 (human) (UniProt Q9BUB5)
# [23] = biological target: MST4 (human) (UniProt Q9P289); settings: compound 10.0 µM
# [24] = biological target: NEK2 (human) (UniProt P51955)
# [25] = biological target: NUAK1 (human) (UniProt O60285)
# [26] = biological target: PAK4 (human) (UniProt O96013)
# [27] = biological target: PAK7 (human) (UniProt Q9P286)
# [28] = biological target: PLK1 (human) (UniProt P53350)
# [29] = test system: PRKAA1 or PRKAA2 (rat); settings: accession and sequence are those of the human protein
# [30] = biological target: PRKACA (human) (UniProt P17612)
# [31] = biological target: PRKCA (human) (UniProt P17252)
# [32] = biological target: RPS6KA1 KD1 KD2 (human) (UniProt Q15418)
# [33] = test system: SGK1 (human), O00141 [S422D]; settings: compound 1.0 µM
# [34] = biological target: SYK (human) (UniProt P43405)
# NUAK1 (human), sequence (O60285 whole entry, looked up): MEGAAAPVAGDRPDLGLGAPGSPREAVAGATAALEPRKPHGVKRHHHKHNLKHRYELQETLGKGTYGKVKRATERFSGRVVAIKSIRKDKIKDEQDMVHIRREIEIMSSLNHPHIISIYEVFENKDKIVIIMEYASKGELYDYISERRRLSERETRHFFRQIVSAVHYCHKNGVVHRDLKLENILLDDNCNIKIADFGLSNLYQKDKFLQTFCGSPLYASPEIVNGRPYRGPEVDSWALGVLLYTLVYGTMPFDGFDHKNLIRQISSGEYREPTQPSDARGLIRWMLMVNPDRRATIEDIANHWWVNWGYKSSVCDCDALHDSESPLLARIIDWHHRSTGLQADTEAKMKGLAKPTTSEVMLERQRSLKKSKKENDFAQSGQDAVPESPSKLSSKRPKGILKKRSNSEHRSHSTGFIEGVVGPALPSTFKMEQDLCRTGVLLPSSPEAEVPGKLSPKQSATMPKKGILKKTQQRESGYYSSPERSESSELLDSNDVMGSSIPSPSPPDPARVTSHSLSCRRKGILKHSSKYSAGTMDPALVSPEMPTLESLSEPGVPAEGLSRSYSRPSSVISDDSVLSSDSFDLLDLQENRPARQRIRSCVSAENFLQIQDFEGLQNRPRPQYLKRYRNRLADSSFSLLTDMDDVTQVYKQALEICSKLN
# IKBKE (human), sequence (Q14164 whole entry, looked up): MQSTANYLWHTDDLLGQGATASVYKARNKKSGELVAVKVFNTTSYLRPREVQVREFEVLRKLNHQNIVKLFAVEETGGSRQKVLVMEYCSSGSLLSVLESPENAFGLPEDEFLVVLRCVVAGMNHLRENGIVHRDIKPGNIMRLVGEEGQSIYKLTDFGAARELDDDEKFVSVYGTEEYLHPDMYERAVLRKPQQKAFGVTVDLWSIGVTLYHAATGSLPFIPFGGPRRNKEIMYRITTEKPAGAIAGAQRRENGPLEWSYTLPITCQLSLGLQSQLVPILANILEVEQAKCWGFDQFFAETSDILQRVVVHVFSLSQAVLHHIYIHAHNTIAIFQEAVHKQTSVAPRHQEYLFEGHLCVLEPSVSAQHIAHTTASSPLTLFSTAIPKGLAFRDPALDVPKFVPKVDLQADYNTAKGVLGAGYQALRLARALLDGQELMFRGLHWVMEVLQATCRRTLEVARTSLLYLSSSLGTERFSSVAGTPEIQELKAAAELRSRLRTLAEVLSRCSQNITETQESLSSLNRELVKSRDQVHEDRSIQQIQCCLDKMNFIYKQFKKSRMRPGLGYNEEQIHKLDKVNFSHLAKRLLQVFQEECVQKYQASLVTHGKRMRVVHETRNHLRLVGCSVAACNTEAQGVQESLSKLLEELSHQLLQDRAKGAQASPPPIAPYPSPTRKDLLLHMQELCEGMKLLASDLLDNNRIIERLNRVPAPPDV
# PAK7 (human), sequence (Q9P286 whole entry, looked up): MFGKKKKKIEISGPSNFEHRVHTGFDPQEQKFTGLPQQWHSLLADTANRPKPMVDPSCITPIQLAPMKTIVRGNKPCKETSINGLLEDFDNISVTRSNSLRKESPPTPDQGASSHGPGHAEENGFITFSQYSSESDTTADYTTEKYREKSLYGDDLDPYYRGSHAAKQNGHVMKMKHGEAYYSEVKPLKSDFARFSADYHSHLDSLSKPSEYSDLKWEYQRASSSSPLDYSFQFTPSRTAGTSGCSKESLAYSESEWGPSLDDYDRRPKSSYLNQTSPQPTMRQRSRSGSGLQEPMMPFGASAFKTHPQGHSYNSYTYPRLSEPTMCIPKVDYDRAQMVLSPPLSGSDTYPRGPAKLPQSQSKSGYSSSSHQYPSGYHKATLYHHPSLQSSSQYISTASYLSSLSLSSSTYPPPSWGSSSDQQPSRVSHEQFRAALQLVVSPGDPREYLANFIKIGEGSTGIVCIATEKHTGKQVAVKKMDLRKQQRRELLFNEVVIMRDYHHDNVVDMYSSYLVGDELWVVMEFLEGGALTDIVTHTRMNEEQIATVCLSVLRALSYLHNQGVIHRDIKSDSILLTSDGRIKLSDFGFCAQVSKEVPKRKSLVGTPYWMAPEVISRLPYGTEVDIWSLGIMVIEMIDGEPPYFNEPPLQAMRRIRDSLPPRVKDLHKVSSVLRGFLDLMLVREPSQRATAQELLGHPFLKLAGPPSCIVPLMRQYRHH
# AURKA (human), sequence (O14965 whole entry, looked up): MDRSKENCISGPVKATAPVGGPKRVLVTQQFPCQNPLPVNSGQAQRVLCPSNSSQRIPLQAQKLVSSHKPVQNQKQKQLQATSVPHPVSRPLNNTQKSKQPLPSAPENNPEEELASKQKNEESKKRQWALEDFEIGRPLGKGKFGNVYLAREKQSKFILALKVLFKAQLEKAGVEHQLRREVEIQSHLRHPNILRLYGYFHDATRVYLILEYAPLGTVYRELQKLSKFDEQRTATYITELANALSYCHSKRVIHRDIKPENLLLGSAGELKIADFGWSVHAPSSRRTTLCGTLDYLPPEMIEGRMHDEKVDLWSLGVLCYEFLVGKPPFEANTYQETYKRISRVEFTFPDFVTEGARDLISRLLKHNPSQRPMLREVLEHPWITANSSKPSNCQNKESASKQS
# EPHB2 (human), sequence (P29323 whole entry, looked up): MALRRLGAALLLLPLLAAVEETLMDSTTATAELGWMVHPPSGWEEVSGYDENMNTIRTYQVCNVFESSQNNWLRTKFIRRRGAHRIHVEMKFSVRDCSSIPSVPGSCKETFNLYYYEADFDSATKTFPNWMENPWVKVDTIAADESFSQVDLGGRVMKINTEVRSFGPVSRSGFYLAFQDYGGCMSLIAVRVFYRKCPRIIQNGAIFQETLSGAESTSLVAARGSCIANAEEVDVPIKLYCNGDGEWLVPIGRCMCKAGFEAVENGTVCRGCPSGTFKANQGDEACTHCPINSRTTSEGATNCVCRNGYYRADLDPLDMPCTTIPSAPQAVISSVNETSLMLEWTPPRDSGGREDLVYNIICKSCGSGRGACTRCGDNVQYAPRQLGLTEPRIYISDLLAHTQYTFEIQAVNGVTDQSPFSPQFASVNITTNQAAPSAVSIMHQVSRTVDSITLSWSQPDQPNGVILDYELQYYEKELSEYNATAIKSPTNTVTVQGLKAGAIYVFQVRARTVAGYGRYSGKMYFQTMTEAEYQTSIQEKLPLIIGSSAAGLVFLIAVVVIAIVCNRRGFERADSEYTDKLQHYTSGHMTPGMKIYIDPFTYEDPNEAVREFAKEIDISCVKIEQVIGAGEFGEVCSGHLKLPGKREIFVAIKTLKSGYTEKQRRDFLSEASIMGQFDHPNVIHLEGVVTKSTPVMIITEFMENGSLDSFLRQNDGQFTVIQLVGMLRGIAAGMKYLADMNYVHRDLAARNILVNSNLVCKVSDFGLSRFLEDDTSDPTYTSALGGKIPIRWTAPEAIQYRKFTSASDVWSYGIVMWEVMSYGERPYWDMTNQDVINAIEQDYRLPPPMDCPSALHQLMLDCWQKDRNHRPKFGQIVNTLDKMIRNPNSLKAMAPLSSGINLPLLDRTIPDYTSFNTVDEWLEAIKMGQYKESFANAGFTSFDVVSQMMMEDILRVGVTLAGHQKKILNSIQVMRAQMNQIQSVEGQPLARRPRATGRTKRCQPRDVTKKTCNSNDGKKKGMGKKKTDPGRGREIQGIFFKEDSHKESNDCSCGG
# HIPK2 (human), sequence (Q9H2X6 whole entry, looked up): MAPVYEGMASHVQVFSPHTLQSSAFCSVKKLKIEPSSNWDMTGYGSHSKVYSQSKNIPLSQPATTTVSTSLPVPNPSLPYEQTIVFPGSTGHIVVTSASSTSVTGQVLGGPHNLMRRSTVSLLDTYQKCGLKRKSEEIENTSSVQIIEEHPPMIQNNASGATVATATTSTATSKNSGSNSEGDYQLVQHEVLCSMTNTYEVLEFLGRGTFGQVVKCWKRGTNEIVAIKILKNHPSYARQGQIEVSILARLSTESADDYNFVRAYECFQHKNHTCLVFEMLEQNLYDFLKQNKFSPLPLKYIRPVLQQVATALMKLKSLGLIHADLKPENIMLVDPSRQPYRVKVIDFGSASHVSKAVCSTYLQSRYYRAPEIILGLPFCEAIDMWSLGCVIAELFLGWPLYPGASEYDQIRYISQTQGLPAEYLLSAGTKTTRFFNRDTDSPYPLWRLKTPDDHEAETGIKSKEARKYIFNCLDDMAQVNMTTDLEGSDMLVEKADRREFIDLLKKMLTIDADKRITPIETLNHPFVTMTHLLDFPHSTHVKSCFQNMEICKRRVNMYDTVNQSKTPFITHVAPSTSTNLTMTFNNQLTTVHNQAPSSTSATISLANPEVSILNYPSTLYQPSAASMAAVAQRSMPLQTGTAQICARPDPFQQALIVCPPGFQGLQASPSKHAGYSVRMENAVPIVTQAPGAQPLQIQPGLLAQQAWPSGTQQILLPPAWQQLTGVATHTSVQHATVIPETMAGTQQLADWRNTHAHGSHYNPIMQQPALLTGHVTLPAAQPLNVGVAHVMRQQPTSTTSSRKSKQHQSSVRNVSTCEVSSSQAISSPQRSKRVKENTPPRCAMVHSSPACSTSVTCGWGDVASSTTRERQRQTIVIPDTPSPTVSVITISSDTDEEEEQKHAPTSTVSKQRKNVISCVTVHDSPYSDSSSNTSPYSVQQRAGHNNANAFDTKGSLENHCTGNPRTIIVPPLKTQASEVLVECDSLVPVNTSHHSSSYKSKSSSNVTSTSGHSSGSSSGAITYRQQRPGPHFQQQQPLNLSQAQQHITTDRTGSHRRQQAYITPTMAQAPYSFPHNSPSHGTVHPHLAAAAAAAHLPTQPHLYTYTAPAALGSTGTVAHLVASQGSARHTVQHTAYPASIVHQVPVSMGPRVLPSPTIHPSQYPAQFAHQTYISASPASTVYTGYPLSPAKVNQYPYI
smiles,measurement,setting,value
COc1cc2ncn(-c3cc(OCc4ccccc4S(C)(=O)=O)c(C#N)s3)c2cc1OC,residual activity,[1]; compound 1.0 µM,98%
same,residual activity,[1]; compound 10.0 µM,85%
same,residual activity,[2]; compound 1.0 µM,29%
same,residual activity,[2]; compound 10.0 µM,6%
same,residual activity,[3],30%
same,residual activity,[4]; compound 1.0 µM,19%
same,residual activity,[4]; compound 10.0 µM,19%
same,residual activity,[5]; compound 1.0 µM,90%
same,residual activity,[5]; compound 10.0 µM,80%
same,residual activity,[6]; compound 1.0 µM,73%
same,residual activity,[6]; compound 10.0 µM,81%
same,residual activity,[7]; compound 1.0 µM,84%
same,residual activity,[7]; compound 10.0 µM,72%
same,residual activity,[8]; compound 1.0 µM,62%
same,residual activity,[8]; compound 10.0 µM,50%
same,residual activity,[9]; compound 1.0 µM,40%
same,residual activity,[9]; compound 10.0 µM,27%
same,residual activity,[10]; compound 1.0 µM,78%
same,residual activity,[10]; compound 10.0 µM,84%
same,residual activity,[11]; compound 1.0 µM,49%
same,residual activity,[11]; compound 10.0 µM,32%
same,residual activity,[12]; compound 1.0 µM,9%
same,residual activity,[12]; compound 10.0 µM,6%
same,residual activity,[13]; compound 1.0 µM,91%
same,residual activity,[13]; compound 10.0 µM,84%
same,residual activity,[14]; compound 1.0 µM,5%
same,residual activity,[14]; compound 10.0 µM,3%
same,residual activity,[15]; compound 1.0 µM,104%
same,residual activity,[15]; compound 10.0 µM,88%
same,residual activity,[16]; compound 1.0 µM,99%
same,residual activity,[16]; compound 10.0 µM,77%
same,residual activity,[17]; compound 1.0 µM,112%
same,residual activity,[17]; compound 10.0 µM,86%
same,residual activity,[18]; compound 1.0 µM,101%
same,residual activity,[18]; compound 10.0 µM,77%
same,residual activity,[19]; compound 1.0 µM,92%
same,residual activity,[19]; compound 10.0 µM,87%
same,residual activity,[20]; compound 1.0 µM,93%
same,residual activity,[20]; compound 10.0 µM,67%
same,residual activity,[21]; compound 1.0 µM,39%
same,residual activity,[21]; compound 10.0 µM,35%
same,residual activity,[22]; compound 1.0 µM,47%
same,residual activity,[22]; compound 10.0 µM,34%
same,residual activity,[23],47%
same,residual activity,[24]; compound 1.0 µM,41%
same,residual activity,[24]; compound 10.0 µM,39%
same,residual activity,[25]; compound 1.0 µM,35%
same,residual activity,[25]; compound 10.0 µM,35%
same,residual activity,[26]; compound 1.0 µM,53%
same,residual activity,[26]; compound 10.0 µM,41%
same,residual activity,[27]; compound 1.0 µM,80%
same,residual activity,[27]; compound 10.0 µM,58%
same,residual activity,[28]; compound 1.0 µM,65%
same,residual activity,[28]; compound 10.0 µM,55%
same,residual activity,[29]; compound 1.0 µM,10%
same,residual activity,[29]; compound 10.0 µM,9%
same,residual activity,[30]; compound 1.0 µM,101%
same,residual activity,[30]; compound 10.0 µM,83%
same,residual activity,[31]; compound 1.0 µM,96%
same,residual activity,[31]; compound 10.0 µM,88%
same,residual activity,[32]; compound 1.0 µM,50%
same,residual activity,[32]; compound 10.0 µM,28%
same,residual activity,[33],105%
same,residual activity,[34]; compound 1.0 µM,95%
same,residual activity,[34]; compound 10.0 µM,87%
